Patent publication US20120022047A1, “PROCESS FOR THE PURIFICATION OF ESLICARBAZEPINE ACETATE” (GLENMARK GENERICS LTD, priority 2009, published 2012)

Tests used:
[1] = Specific surface area by Brunauer-Emmett-Teller (B.E.T.) nitrogen absorption; assay type: physicochemical; conditions: crystal particles, measured by B.E.T.
Excerpt: Specific surface area is defined in units of square meters per gram (m2/g). It is usually measured by nitrogen absorption analysis. In this analysis, nitrogen is absorbed on the surface of the substance. The amount of the absorbed nitrogen (as measured during the absorption or the subsequent desorption process) is related to the surface area via a formula known as the Brunauer Emmet Teller (B.E.T.) formula.

[2] = Particle size distribution by laser diffraction (Malvern Mastersizer); assay type: physicochemical; conditions: crystal particles obtained by the processes herein described
Excerpt: As used herein, the phrase, “particle size distribution (PSD)” means the cumulative volume size distribution of equivalent spherical diameters as determined by laser diffraction at 1 bar dispersive pressure in a Sympatec Helos equipment. d10, as used herein is defined as the particle size at which the cumulative percentage undersize is 10 (i.e. the bottom 10% of particles are less than or equal to the stated size). d50 means the median particle size and d90 is defined as the particle size at which the cumulative percentage undersize is 90 (i.e. the bottom 90% of particles are less than or equal to the stated size). The particle size of eslicarbazepine acetate was measured under following conditions. [table] In accordance with the invention, the size distribution of eslicarbazepine acetate particles is determined by laser diffraction. In the present invention, the method in the determination of the size of eslicarbazepine acetate particles employed a Malvern Mastersizer laser diffraction instrument. Samples of the eslicarbazepine acetate were suspended in hexane containing a surfactant, 1% Tween80®. The suspensions were mixed and then sonicated for 120 seconds to thoroughly disperse the eslicarbazepine acetate particles. The dispersion was then circulated in the flow cell of the Malvern Mastersizer for two minutes before particle size measurements were taken.

Specific surface area [1]: about 1.37 m^2/g | Particle size distribution d 10 [2]: 5.421 μm | Particle size distribution d 50 (median particle size) [2]: 19.780 μm | Particle size distribution d 90 [2]: 168.686 μm
Compound: CC(=O)O[C@H]1Cc2ccccc2N(C(N)=O)c2ccccc21 [eslicarbazepine acetate, (S)-(−)-10-(acetyloxy)-10,11-dihydro-5H-dibenz[b,f]-azepine-5-carboxamide]
